# Experimental data published in patent US6156790A, “C-10 carbon-substituted artemisinin-like trioxane compounds having antimalarial, antiproliferative and antitumor activities” (priority 1997, dated 2000).
# “Also recorded” adds a separate entry of the source. Like-named read-outs stand apart in the source and are kept apart here.
# Experiments:
# [1] = test system: HOP-92; assay: NCI 60 cell line screen (SRB), non-small cell lung cancer; format: cell-based; conditions: Homo sapiens, read-out: Log10 GI50 (converted)
# [2] = test system: OVCAR-8; assay: NCI 60 cell line screen (SRB), ovarian cancer; format: cell-based; conditions: Homo sapiens
# [3] = test system: MOLT-4; assay: cells; conditions: Homo sapiens
# Protocol: The screening assay is performed on a 96-well microtitre plates.
# Dose response curves, shown in the above mentioned Figures, are obtained by exposing various cancer cell lines to compounds having a known concentration ([log10 M]), as discussed in detail above, and then plotting the percentage growth of each cell line for each concentration. […] As discussed previously, the five drug dilutions routinely tested range from 10^-4 to 10^-9 molar.
# [4] = test system: A549/ATCC; assay: NCI 60 cell line screen (SRB), non-small cell lung cancer; format: cell-based; conditions: Homo sapiens
# [5] = test system: SK-MEL-2; assay: cells; format: cell-based; conditions: Homo sapiens
# [6] = test system: 60 cell line panel; assay: NCI 60 cell line screen, whole panel; format: cell-based
# [7] = test system: K-562; assay: cells; format: cell-based; conditions: Homo sapiens, K562, K-562
# [8] = test system: HT29; assay: cells; format: cell-based; conditions: Homo sapiens, HT-29, read-out: Log10 GI50 (converted)
# [9] = test system: NCI-H522; assay: cells; format: cell-based; conditions: Homo sapiens
# [10] = test system: SNB-19; assay: cells; format: cell-based; conditions: Homo sapiens, read-out: Log10 GI50 (converted)
# [11] = test system: HOP-62; assay: cells; format: cell-based; conditions: Homo sapiens, read-out: Log10 GI50 (converted)
# [12] = test system: RXF 393; assay: cells; conditions: Homo sapiens, RXF 393, read-out: Log10 GI50 (converted)
# [13] = test system: SNB-75; assay: cells; format: cell-based; conditions: Homo sapiens, read-out: Log10 GI50 (converted)
# [14] = test system: KM12; assay: cells; format: cell-based; conditions: Homo sapiens, read-out: Log10 TGI (converted)
# [15] = test system: HCT-15; assay: cells; format: cell-based; conditions: Homo sapiens, HCT-15
# [16] = test system: NCI-H460; assay: cells; format: cell-based; conditions: Homo sapiens, NCI-H460
# [17] = test system: UO-31; assay: NCI 60 cell line screen (SRB), renal cancer; format: cell-based; conditions: Homo sapiens
# [18] = test system: TK-10; assay: cells; format: cell-based; conditions: Homo sapiens
# [19] = test system: EKVX; assay: NCI 60 cell line screen (SRB), non-small cell lung cancer; format: cell-based; conditions: Homo sapiens
# [20] = test system: NCI-H23; assay: as above; format: cell-based; conditions: Homo sapiens
# [21] = test system: A498; assay: cells; format: cell-based; conditions: Homo sapiens, read-out: Log10 GI50 (converted)
# [22] = test system: NCI-H226; assay: NCI 60 cell line screen (SRB), non-small cell lung cancer; format: cell-based; conditions: Homo sapiens, read-out: Log10 GI50 (converted)
# [23] = test system: PC-3; assay: cells; format: cell-based; conditions: Homo sapiens, PC-3
# [24] = test system: M14; assay: NCI 60 cell line screen (SRB), melanoma; conditions: Homo sapiens, M14, read-out: Log10 GI50 (converted)
# [25] = test system: ACHN; assay: cells; conditions: Homo sapiens
# [26] = test system: SW-620; assay: NCI 60 cell line screen (SRB), colon cancer; format: cell-based; conditions: Homo sapiens
# [27] = test system: MCF7; assay: cells; format: cell-based; conditions: Homo sapiens, MCF7; read-out: Log10 GI50 (converted)
# [28] = test system: BT-549; assay: cells; format: cell-based; conditions: Homo sapiens
# [29] = test system: IGROVI; assay: cells; conditions: 60 cell
# [30] = test system: MDA-MB231/ATCC; assay: cells; format: cell-based; conditions: Homo sapiens, MDA-MB-231, read-out: Log10 TGI (converted)
# [31] = test system: SR; assay: cells; format: cell-based; conditions: Homo sapiens
# [32] = test system: LOX IMVI; assay: cells; format: cell-based; conditions: Homo sapiens
# [33] = test system: MDA-N; assay: cells; format: cell-based; conditions: Homo sapiens, read-out: Log10 GI50 (converted)
# [34] = test system: T-47D; assay: cells; format: cell-based; conditions: Homo sapiens, T47D, T-47D
# [35] = test system: U251; assay: cells; format: cell-based; conditions: Homo sapiens
# [36] = test system: HCT-116; assay: cells; format: cell-based; conditions: Homo sapiens
# [37] = read-out: Log10 GI50 (converted)
# [38] = read-out: Log10 TGI (converted)
# [39] = read-out: Log10 LC50 (converted)
structure (smiles),measurement,setting,value
"C[C@H]1[C@@H](F)O[C@@H]2O[C@@]3(C)CC[C@H]4[C@H](C)CC[C@@H]1[C@@]24OO3 [Compound VI, 10β-Fluorodeoxoartemisinin]",GI50,[1],2.95 µM
same,GI50,[2]; [37],2.04 µM
same,IC (TGI),[2]; [38],51.3 µM
same,GI50,"[3]; MOLT-4, read-out: Log10 GI50 (converted)",0.427 µM
same,IC (TGI),"[3]; MOLT-4, read-out: Log10 TGI",36.3 µM
same,GI50,"[3]; MOLT-4, read-out: concentration for primary growth inhibition",~0.1 µM
same,GI50,[4]; [37],6.03 µM
same,IC (TGI),[4]; [38],30.9 µM
same,GI50,[5]; [37],7.59 µM
same,IC (TGI),[5]; [38],77.6 µM
same,IC (TGI),"[6]; 60 cell, mean over panel, read-out: Log10 TGI MG MID (converted)",41.7 µM
same,CC50,"[6]; Homo sapiens, 60 cell, mean over panel, read-out: Log10 LC50 MG MID (converted)",93.3 µM
same,potency compared with artemisinin,"[6]; Tables III, IV and V",more potent than artemisinin
same,potency compared with paclitaxel,"[6]; Tables III, IV and V",in most instances are as potent and in some instances more potent than paclitaxel; also recorded: equivalent to and in many instances higher in potency than paclitaxel
same,GI50,[7]; [37],0.316 µM
same,IC (TGI),[7]; [38],12.6 µM
same,GI50,[8],0.407 µM
same,GI50,[9]; [37],0.851 µM
same,CC50,[9]; [39],64.6 µM
same,IC (TGI),[9]; [38],16.6 µM
same,GI50,[10],871 µM
same,GI50,[11],12.9 µM
same,GI50,[12],14.8 µM
same,GI50,[13],14.5 µM
same,IC (TGI),[14],26.9 µM
same,GI50,[15]; [37],0.339 µM
same,IC (TGI),[15]; [38],51.3 µM
same,GI50,[16]; [37],0.813 µM
same,CC50,[16]; [39],55 µM
same,IC (TGI),[16]; [38],19.1 µM
same,GI50,[17]; [37],1.1 µM
same,CC50,[17]; [39],25.1 µM
same,IC (TGI),[17]; [38],5.01 µM
same,GI50,[18]; [37],11 µM
same,IC (TGI),[18]; [38],37.2 µM
same,GI50,[19]; [37],2.95 µM
same,IC (TGI),[19]; [38],89.1 µM
same,GI50,[20]; [37],0.631 µM
same,IC (TGI),[20]; [38],25.1 µM
same,GI50,[21],28.2 µM
same,GI50,[22],5.75 µM
same,GI50,[23]; [37],0.251 µM
same,IC (TGI),[23]; [38],46.8 µM
same,GI50,[24],17.4 µM
same,GI50,[25]; [37],1.02 µM
same,CC50,[25]; [39],38.9 µM
same,IC (TGI),[25]; read-out: Log10 TGI,12.6 µM
same,GI50,[26]; [37],0.398 µM
same,CC50,[26]; [39],63.1 µM
same,IC (TGI),[26]; [38],15.5 µM
same,GI50,[27],0.525 µM
same,GI50,[28]; [37],0.759 µM
same,IC (TGI),[28]; [38],30.9 µM
same,GI50,[29]; [37],1.23 µM
same,IC (TGI),[29]; read-out: Log10 TGI,18.2 µM
same,IC (TGI),[30],56.2 µM
same,GI50,[31]; [37],0.427 µM
same,IC (TGI),[31]; [38],13.8 µM
same,GI50,[32]; [37],0.355 µM
same,CC50,[32]; [39],31.6 µM
same,IC (TGI),[32]; [38],275 µM
same,GI50,[33],1.15 µM
same,GI50,[34]; [37],0.302 µM
same,IC (TGI),[34]; [38],47.9 µM
same,GI50,"[35]; U-251, read-out: Log10 GI50 (converted)",0.447 µM
same,CC50,"[35]; U-251, read-out: Log10 LC50 (converted)",42.7 µM
same,IC (TGI),"[35]; U-251, read-out: Log10 TGI (converted)",16.2 µM
same,GI50,[36]; [37],0.195 µM
same,CC50,[36]; [39],42.7 µM
